Laboratory results from patent publication US20110257176A1, “NITROGEN HETEROCYCLE DERIVATIVES AS PROTEASOME MODULATORS” (INSTITUT NATIONAL DE LA SANTE ET DE LA RECHERCHE MEDICALE …, priority 2008, published 2011).

Legend:
[1] = molecular target: T1, rabbit reticulocyte 20S proteasome, chymotrypsin-like (CT-L) activity (UniProt G1T4Q9); assay: 20S proteasome chymotrypsin-like (CT-L) activity, Suc-LLVY-AMC hydrolysis; format: biochemical; conditions: rabbit 20S proteasome, pH 8, 37° C.
T1 construct: IC50 on chymotrypsin-like activity; other: rabbit 20S proteasome, pH 8, 37° C; Rabbit erythrocyte 20S proteasome was obtained from Boston Biochem, Cambridge, USA
Procedure: (§1) Rabbit erythrocyte 20S proteasome was obtained from Boston Biochem, Cambridge, USA. The fluorogenic substrates Suc-LLVY-AMC, Boc-LRR-AMC and Z-LLE-βNA used to measure the proteasome activities CT-L, T-L and PA respectively were purchased from Bachem (France). Other reagents and solvents were purchased from commercial sources. Fluorescence was measured using a BMG Fluostar microplate reader.
(§2) Compounds 1-23 were tested for their potential to inhibit the CT-L, T-L and PA activities of the rabbit reticulocyte 20S proteasome. Enzyme activities were determined by monitoring the hydrolysis of the appropriate fluorogenic substrate (λexc=360, λem=465 nm for AMC substrates, and λexc=340, λem=405 nm for the βNA substrate) for 1 h at 37° C.
(§3) In the in vitro screening, each compound was tested in duplicate against the three activities, at 100 μM and 50 μM in the corresponding buffer. The buffer were (pH 8): 50 mM Tris, 150 mM NaCl, 10% (v/v) glycerol, 0.025% (w/v) SDS, and 3% (v/v) DMSO (CT-L and PA activities); 50 mM Tris, 150 mM NaCl, 10% (v/v) glycerol, and 3% (v/v) DMSO (T-L activity).
(§4) The inhibitory activity of compounds is expressed as IC50, which corresponds to the concentration of proteasome inhibitor leading to a loss of activity of 50%. The values of IC50 were calculated by fitting the experimental data to equation 1: % Inhibition=100×(1−Vi/V0)=100 [I]0/(IC50+[I]0), or equation 2: % Inhibition=100 [I]0^nH/(IC50^nH+[I]0^nH), where Vi is the initial rate in the presence of the inhibitor, V0 is the initial rate in the absence of the inhibitor, [I]0 is the inhibitor concentration, nH is the Hill number (FIG. 1).

[2] = system: rabbit reticulocyte 20S proteasome, trypsin-like (T-L) activity; assay: 20S proteasome trypsin-like (T-L) activity, Boc-LRR-AMC hydrolysis; format: biochemical; parameters: key to Inhibition of trypsin-like activity (NI): NI: No Inhibition; conditions: rabbit 20S proteasome; for Inhibition of trypsin-like activity (NI): screened at 100 μM and 50 μM
Procedure: as §1, §2, §3, §4

[3] = molecular target: rabbit reticulocyte 20S proteasome, post-acid (PA) activity (Oryctolagus cuniculus, UniProt G1T235); assay: 20S proteasome post-acid (PA) activity, Z-LLE-βNA hydrolysis; format: biochemical; parameters: key to Inhibition of post-acid activity (NI): NI: No Inhibition; conditions: rabbit 20S proteasome; for Inhibition of post-acid activity (NI): screened at 100 μM and 50 μM; for IC50: pH 8, 37° C.
rabbit reticulocyte 20S proteasome, post-acid (PA) activity, sequence (G1T235 entry or part of it): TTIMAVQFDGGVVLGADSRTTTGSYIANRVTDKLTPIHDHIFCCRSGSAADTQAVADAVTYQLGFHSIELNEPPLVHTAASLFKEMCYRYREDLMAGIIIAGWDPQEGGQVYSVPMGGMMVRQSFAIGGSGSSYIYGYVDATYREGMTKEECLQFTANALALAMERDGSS
Procedure: as §1, §2, §3, §4

[4] = molecular target: T2, human calpain-I (Homo sapiens, UniProt P07384); assay: Selectivity: inhibition of calpain-I; format: biochemical; conditions: 100 μM compound
T2 sequence (P07384 1-714): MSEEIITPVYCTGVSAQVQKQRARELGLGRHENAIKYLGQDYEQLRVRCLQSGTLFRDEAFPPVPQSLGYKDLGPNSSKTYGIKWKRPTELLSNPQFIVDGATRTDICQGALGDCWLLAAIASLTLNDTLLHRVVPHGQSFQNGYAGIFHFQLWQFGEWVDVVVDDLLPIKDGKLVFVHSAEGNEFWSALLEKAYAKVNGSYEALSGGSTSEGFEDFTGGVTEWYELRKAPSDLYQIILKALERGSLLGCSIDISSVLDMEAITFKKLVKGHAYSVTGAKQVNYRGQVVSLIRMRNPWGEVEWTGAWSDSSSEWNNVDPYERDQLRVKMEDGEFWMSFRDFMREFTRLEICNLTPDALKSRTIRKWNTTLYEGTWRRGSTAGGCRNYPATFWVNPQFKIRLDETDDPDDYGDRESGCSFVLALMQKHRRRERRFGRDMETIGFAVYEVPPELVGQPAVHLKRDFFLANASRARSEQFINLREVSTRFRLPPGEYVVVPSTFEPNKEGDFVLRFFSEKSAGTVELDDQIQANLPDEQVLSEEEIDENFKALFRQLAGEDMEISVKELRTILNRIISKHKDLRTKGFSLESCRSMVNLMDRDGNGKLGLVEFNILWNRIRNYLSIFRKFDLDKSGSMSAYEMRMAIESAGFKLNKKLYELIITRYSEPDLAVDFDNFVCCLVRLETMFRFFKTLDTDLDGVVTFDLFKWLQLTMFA
T2 sequence (P04632 1-268 partner): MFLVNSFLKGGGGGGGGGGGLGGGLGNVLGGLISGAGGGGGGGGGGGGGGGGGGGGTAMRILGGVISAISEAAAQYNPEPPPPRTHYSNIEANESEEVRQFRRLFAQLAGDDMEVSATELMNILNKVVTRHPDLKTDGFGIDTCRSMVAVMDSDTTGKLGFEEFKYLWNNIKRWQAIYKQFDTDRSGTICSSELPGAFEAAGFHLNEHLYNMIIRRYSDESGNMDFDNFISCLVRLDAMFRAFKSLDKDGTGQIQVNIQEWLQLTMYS

[5] = molecular target: T3, rabbit reticulocyte 20S proteasome, chymotrypsin-like (CT-L) activity (Oryctolagus cuniculus, UniProt G1T4Q9); assay: 20S proteasome chymotrypsin-like (CT-L) activity, Suc-LLVY-AMC hydrolysis; format: biochemical; conditions: rabbit 20S proteasome, pH 8, 37° C.
T3 construct: IC50 on chymotrypsin-like activity; other: rabbit 20S proteasome, pH 8, 37° C; Rabbit erythrocyte 20S proteasome was obtained from Boston Biochem, Cambridge, USA
T3 sequence (G1T4Q9 1-263): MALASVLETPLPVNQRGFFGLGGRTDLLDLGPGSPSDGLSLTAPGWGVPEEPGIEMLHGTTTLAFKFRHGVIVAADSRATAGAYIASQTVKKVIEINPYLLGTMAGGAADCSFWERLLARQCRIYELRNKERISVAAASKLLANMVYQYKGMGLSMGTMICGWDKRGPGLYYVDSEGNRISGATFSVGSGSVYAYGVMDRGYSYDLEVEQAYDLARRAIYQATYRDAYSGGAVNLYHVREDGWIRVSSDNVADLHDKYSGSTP
Procedure: as §1, §2, §3, §4

[6] = molecular target: T4, human erythrocyte 20S proteasome, chymotrypsin-like (CT-L) activity (Homo sapiens, UniProt P28074); assay: as above; format: biochemical; conditions: for IC50: pH 7.5
T4 construct: three activities of human erythrocyte 20S proteasome; from tissue; host or cells: human erythrocytes
Procedure: as §1, §4
(§5) Compounds 24, 25 and 31-35 were tested in duplicate against three activities of human erythrocyte 20S proteasome at 100 and 50 μM in the appropriate buffer (pH 7.5): 20 mM Tris HCl, 10% (v/v) glycerol, 0.01% (w/v) SDS and 2% DMSO (CT-L and PA activities); 20 mM Tris HCl, 10% (v/v) glycerol, and 2% DMSO (T-L activity). The inhibitory activities were analyzed as described above for compounds 1-23.

[7] = molecular target: T5, human erythrocyte 20S proteasome, trypsin-like (T-L) activity (Homo sapiens, UniProt Q99436); assay: 20S proteasome trypsin-like (T-L) activity, Boc-LRR-AMC hydrolysis; format: biochemical; parameters: key to Inhibition of trypsin-like activity (NI): NI: No Inhibition; conditions: for IC50: pH 7.5; for inhibition at 100 µM: 100 μM inhibitor, read-out: % inhibition (inhibitor concentration) on trypsin-like activity
T5 construct: three activities of human erythrocyte 20S proteasome; from tissue; host or cells: human erythrocytes
Procedure: as §1, §4, §5

[8] = molecular target: T6, human erythrocyte 20S proteasome, post-acid (PA) activity (Homo sapiens, UniProt P28072); assay: 20S proteasome post-acid (PA) activity, Z-LLE-βNA hydrolysis; format: biochemical; parameters: key: NI: No Inhibition; conditions: screened at 100 and 50 μM
T6 construct: three activities of human erythrocyte 20S proteasome; from tissue; host or cells: human erythrocytes
Procedure: as §1, §4, §5

SMILES | IC50 [1] [µM] | Inhibition of trypsin-like activity (NI) [2] | Inhibition of post-acid activity (NI) [3] | other results
CCc1ccc(OCC(=O)N(Cc2nc(-c3cccc(C)c3)no2)C(C)C)cc1 [Compound 3] | 0.17 ± 0.01 | NI | NI | 
Cc1cccc(-c2noc(CN(C(=O)COc3ccc(Br)cc3)C(C)C)n2)c1 [Compound 4] | 0.51 ± 0.07 |  | NI | % inhibition (inhibitor concentration) on trypsin-like activity ([2]; 50 μM inhibitor): 7.3%
COc1ccc(OCC(=O)N(Cc2nc(-c3cccc(C)c3)no2)C(C)C)cc1 [Compound 5] | 0.91 ± 0.12 | NI | NI | 
COc1ccc(OCC(=O)N(Cc2nc(-c3ccccc3)no2)C(C)C)cc1 [Compound 6] | 1.02 ± 0.16 |  | NI | Inhibition of human calpain-I (in words) [4]: no inhibition
CCc1ccc(OCC(=O)N(Cc2nc(-c3ccc(OC)cc3)no2)C(C)C)cc1 [Compound 7] | 0.09 ± 0.006 | NI | NI | 
C=CCN(Cc1nc(-c2ccc(OC)cc2)no1)C(=O)COc1ccccc1 [Compound 8] | 1.66 ± 0.12 | NI | NI | inhibition at 100 µM [4]: ≤ 30%
COc1ccc(-c2noc(CN(C(=O)COc3ccccc3)C(C)C)n2)cc1 [Compound 9] | 3.96 ± 0.75 | NI | NI | inhibition at 100 µM [4]: ≤ 30%
COc1ccc(-c2noc(CN(C(=O)COc3ccc(C)cc3)C(C)C)n2)cc1 [Compound 10] | 0.71 ± 0.04 | NI | NI | 
COc1ccc(-c2noc(CN(C(=O)COc3ccc(Br)cc3)C(C)C)n2)cc1 [Compound 12] | 0.1 ± 0.01 | NI | NI | 
COc1ccc(-c2noc(CN(C(=O)C(C)Oc3ccccc3)C(C)C)n2)cc1 (stereo not drawn) [Compound 14] | 8.05 ± 0.83 | NI | NI | 
Cc1cccc(OCC(=O)N(Cc2nc(-c3cccc(C)c3)no2)C(C)C)c1 [Compound 15] | ~27 | NI | NI | 
COc1ccc(OCC(=O)N(Cc2nc(-c3ccc(C)cc3)no2)C(C)C)cc1 [Compound 16] | 2.49 ± 0.91 | NI | NI | Inhibition of human calpain-I (in words) [4]: no inhibition
C=CCN(Cc1nc(-c2ccccc2)no1)C(=O)COc1ccc(C)cc1 [Compound 18] | 0.33 ± 0.03 | NI | NI | 
CCOc1ccc(C(=O)N(Cc2nc(-c3ccc(OC)cc3)no2)C(C)C)cc1 [Compound 20] |  |  | NI | IC50 [5]: ~18 µM; Activation × of trypsin-like activity ([2]; 50 μM compound, fold activation): Activation × 3.4 (50 μM)
COc1ccc(C(=O)NCCc2nnc(SCC(=O)Nc3cc(C)ccc3OC)n2C)cc1 [Compound 22] |  |  |  | IC50 [5]: 80 µM; % inhibition (inhibitor concentration) on trypsin-like activity ([2]; 100 μM inhibitor): 22% (100 μM); inhibition at 100 µM ([3]; 100 μM inhibitor, read-out: % inhibition (inhibitor concentration) on post-acid activity): 16%
COc1ccc(Cl)cc1NC(=O)CSc1nnc(C(CO)NC(=O)c2ccccc2)n1C (stereo not drawn) [Compound 23] |  |  | NI | IC50 [5]: 85 µM; % inhibition (inhibitor concentration) on trypsin-like activity ([2]; 100 μM inhibitor): 50% (100 μM)
CC(C)N(Cc1nc(-c2ccc(Oc3ccccc3)cc2)no1)C(=O)COc1ccc(Br)cc1 [Compound 24] |  |  |  | IC50 [6]: 0.61 ± 0.03 µM; IC50 [7]: 10.8 ± 0.4 µM; Inhibition of post-acid activity (NI) [8]: NI; melting point: 87 °C
COc1ccc(-c2noc(CN(C(=O)COc3ccc(Br)cc3)C(C)C)n2)cc1OC [Compound 25] |  |  |  | IC50 [6]: 0.037 ± 0.003 µM; Inhibition of trypsin-like activity (NI) ([7]; screened at 100 and 50 μM): NI; Inhibition of post-acid activity (NI) [8]: NI; melting point: 135 °C
Cc1noc(CN(C(=O)COc2ccc(Br)cc2)C(C)C)n1 [Compound 27] | 12.3 ± 0.3 | NI |  | IC50 [3]: 76 ± 2 µM
CC(C)c1noc(CN(C(=O)COc2ccc(Br)cc2)C(C)C)n1 [Compound 28] | 12.3 ± 0.3 | NI |  | IC50 [3]: 45 ± 1 µM
CC(C)N(Cc1nc(C(C)(C)C)no1)C(=O)COc1ccc(Br)cc1 [Compound 29] | 81 ± 4 | NI |  | IC50 [3]: 28 ± 3 µM
CC(C)N(Cc1nc(-c2cccc3ccccc23)no1)C(=O)COc1ccc(Br)cc1 [Compound 32] |  |  |  | inhibition at 100 µM ([6]; 100 μM inhibitor, read-out: % inhibition (inhibitor concentration) on chymotrypsin-like activity): 30%; IC50 [7]: 29.1 ± 0.9 µM; Inhibition of post-acid activity (NI) [8]: NI; melting point: 114 °C
CC(C)N(Cc1nc(CN2CCOCC2)no1)C(=O)COc1ccc(Br)cc1 [Compound 33] |  |  |  | IC50 [6]: 78.6 ± 1.6 µM; inhibition at 100 µM [7]: 42%; Inhibition of post-acid activity (NI) [8]: NI; melting point: 110 °C
CCN(CC)Cc1noc(CN(C(=O)COc2ccc(Br)cc2)C(C)C)n1 [Compound 34] |  |  |  | IC50 [6]: 30.9 ± 2.3 µM; inhibition at 100 µM [7]: 28%; Inhibition of post-acid activity (NI) [8]: NI; melting point: 168 °C
CC(C)N(Cc1nc(CN2CCCCC2)no1)C(=O)COc1ccc(Br)cc1 [Compound 35] |  |  |  | IC50 [6]: 37.3 ± 4.2 µM; inhibition at 100 µM [7]: 47%; Inhibition of post-acid activity (NI) [8]: NI; melting point: 144 °C
